{"source": "patent US20240262844A1", "about": "“PYRIDINIUM SALTS AND METHODS OF USE” (UNIVERSITY OF WYOMING, priority 2023, published 2024)", "target": "T1, bovine carbonic anhydrase II (29 kDa) (Bos taurus, UniProt P00921)", "T1 construct": "Carbonic Anhydrase Isozyme II from bovine erythrocytes; purchased Sigma Aldrich; host or cells: bovine erythrocytes", "T1 sequence (P00921 whole entry)": "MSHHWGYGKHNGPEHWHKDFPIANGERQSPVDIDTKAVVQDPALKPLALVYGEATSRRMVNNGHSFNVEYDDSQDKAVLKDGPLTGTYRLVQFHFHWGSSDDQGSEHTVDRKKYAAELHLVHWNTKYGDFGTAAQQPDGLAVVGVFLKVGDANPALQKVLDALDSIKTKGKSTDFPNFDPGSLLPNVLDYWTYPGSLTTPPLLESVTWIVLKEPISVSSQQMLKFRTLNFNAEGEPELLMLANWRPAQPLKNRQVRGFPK", "assay": "Photochemical labeling of bovine carbonic anhydrase II (LC/MS, MS-MS)", "type": "biochemical", "protocol": "General Procedure B: Photochemical Irradiation of Peptides and Proteins: To a 2 mL Pyrex LC/MS vial (Thermo model #03-391-39) were sequentially added solutions containing the desired biomolecule, glutathione (GSH), pyridinium salt, and ammonium acetate (NH4OAc). The resulting solution was diluted to a final volume of 500 μL and then sparged using nitrogen for a minimum of 30 minutes prior to irradiation. The actively sparging solution was then placed in an EvoluChem™ PhotoRedOx Box photoreactor that was equipped with a Kessil, PR160 427 nm LED Lamp and was then irradiated (100% lamp intensity) for the designated time at room temperature while maintaining active sparging. The resultant reaction mixture was then analyzed directly by LC/MS. […]\nLabeling of Bovine Carbonic Anhydrase II with Pyridinium Salt 2a (Bovine Carbonic Anhydrase II-2a Conjugate). […] The reaction mixture was directly analyzed by LC/MS using method A and was estimated to have proceeded with 34% conversion and a 4.5:1 mono:di labeled ratio. […]\nGeneral Trypsin Digest Protocol B: For non-cystine bridged labeled proteins, a standard trypsin digest was modified as follows. […] The digested mixture was analyzed directly by LC/MS and MS/MS using method C. […] The reduced product was analyzed by LC/MS-MS by selecting m/z=1108.4 for collision-induced dissociation (Collision energy=35 V). […]", "note": "Where a name gives a salt, the structure may show the parent alone."}
{"smiles": "COC(=O)N(C)[n+]1c(C)cc(-c2ccc3cc(OC)ccc3c2)cc1C", "note": "[Pyridinium salt 2a, 1-((methoxycarbonyl)(methyl)amino)-4-(6-methoxynapthalen-2-yl)-2,6-dimethylpyridin-1-ium tetrafluoroborate]", "values": [{"measurement": "glutathionylation", "setting": "10 μM carbonic anhydrase II, 200 μM pyridinium salt, 300 μM glutathione, 60 minutes", "value": "No glutathionylation was observed"}, {"measurement": "identifiable site of modification", "setting": "digestion/MS-MS", "value": "Trp-243"}]}
